Values quoted from earlier work in PMC8510358, “Common Shortcomings in Study on Radiopharmaceutical Design Research: A Case Study of ^99mTc-Labelled Methotrexate” (Molecules, 2021).

Test system: folate receptors
Parameters: method as in PMID 23851396
Details: in comparison to folic acid (FA); ref [3]

## CN(Cc1cnc2nc(N)nc(N)c2n1)c1ccc(C(=O)N[C@@H](CCC(=O)O)C(=O)O)cc1 [MTX, Methotrexate]
  affinity to folate receptors: noticeably lower
